The test system of assay [1] is Human iPS-derived motor neuron. The assay is described as follows: Pharmacological effect of antibody-MMAE conjugates: axonal amount (Tuj1 staining) in motor neuron neurospheres with LRRTM2 bead-induced presynapse. The class given is cell-based. As to conditions: normalized to Cont. IgG-MMAE set to 100%; 1µg/mL, 30 minutes with 100µM 4-aminopyridine, then 24 hours culture; Tuj1 brightness. As for the experimental part: Human iPS-derived motor neuron (40HU-005-2M; ixcells biotechnologies) was thawed using Dead Cell Removal kit (Veritas) according to the protocol of the kit. The cells after thawing were plated in 96-well plates (V-bottom) at a density of 2×10^4 cells/well and cultured in the motor neuron culture medium (Motor Neuron Maintenance Medium; ixcells biotechnologies) for 1 week to prepare neurospheres. The prepared neurospheres were selected based on size and roundness, and those satisfying this criterion were used in the subsequent experiments.
After coating a 96-well EZVIEW (registered trademark) culture plate LB (AGC Technoglass Co., Ltd.) with poly-D-lysine and Geltrex (registered trademark) Matrix (Thermo Fisher Scientific), the selected neurospheres were then plated and cultured for 20 days. As the medium, the above-described motor neuron culture medium was used first, and medium change with the same medium was performed on the second day of culture. Thereafter, medium was changed three times per week using neuronal medium (Neurobasal plus medium (B27 plus supplement (Thermo Fisher Scientific), 20ng/mL BDNF, 20ng/mL GDNF, and penicillin-streptomycin were added)). Each medium change was performed at 50 µL/well.
Microbeads coated with the extracellular domain of LRRTM2 (active beads) were prepared as disclosed in WO2021/006075. […]

Assay [2] has as its target human Synaptotagmin 2 expressed on HEK293T cells (human) (UniProt Q8N9I0). The assay is described as follows: flow cytometry on HEK293T cells expressing human SYT2 at 0.01 µg/mL antibody; reference is the polyclonal rabbit anti-SYT2 N-terminal antibody (Synaptic Systems 105 223). In general terms: In flow cytometry, cells or beads pass a laser one at a time.

Where a SMILES comes first, the peptide text is derived from it. [ ]: non-standard residue; d: D form. The star is where a group is joined. Dolaproine = CO[C@@H]([C@@H]1CCCN1)[C@@H](C)C(=O)O; Dil = CC[C@H](C)[C@H](NC)[C@@H](CC(=O)O)OC; X1 = C[C@@H](N*)[C@@H](O)c1ccccc1; NMeV = CN[C@H](C(=O)O)C(C)C

Sequence of UniProt Q8N9I0 (Q8N9I0 whole entry): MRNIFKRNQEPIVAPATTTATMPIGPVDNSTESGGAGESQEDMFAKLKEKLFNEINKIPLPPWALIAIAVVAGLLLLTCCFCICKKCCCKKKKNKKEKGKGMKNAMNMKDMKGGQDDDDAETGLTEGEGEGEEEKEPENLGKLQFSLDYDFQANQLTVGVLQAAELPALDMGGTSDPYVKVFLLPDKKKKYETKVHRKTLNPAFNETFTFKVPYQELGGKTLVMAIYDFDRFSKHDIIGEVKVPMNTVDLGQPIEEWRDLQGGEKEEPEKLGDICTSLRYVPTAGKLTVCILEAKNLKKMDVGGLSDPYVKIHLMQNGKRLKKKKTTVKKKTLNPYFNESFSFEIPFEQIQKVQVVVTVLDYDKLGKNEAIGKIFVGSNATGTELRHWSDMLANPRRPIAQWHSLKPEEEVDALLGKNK

`CC[C@H](C)[C@@H]([C@@H](CC(=O)N1CCC[C@H]1[C@H](OC)[C@@H](C)C(=O)N[C@H](C)[C@@H](O)c1ccccc1)OC)N(C)C(=O)[C@@H](NC(=O)[C@@H](NC)C(C)C)C(C)C` [MMAE, monomethyl auristatin E] (H-[NMeV]V[Dil][Dolaproine]-X1): the “relative amount of axon” value in assay [1] was “no significant differences”.

B1: monoclonal antibody according to the present invention (anti-Synaptotagmin 2 intravesicular domain (N-terminal) monoclonal antibody) (antibody, V domains shown)
VH: EVQLQQSGAELVRPGASVKLSCTASGFNIKDDYVHWVKQRPEQGLEWIGWIDPENGDTEYASKFQGKATITADASSNAAYLQLSSLTSEDTAAYYCTTDYYNNPFAYWGQGTLVTVSA
VL: QIVLTQSPAIMSASPGEKVTITCSASSSVSYMHWFQQKPGTSPKLWIYSTSKLASGVPVRFSGSGSGTSYSLTISRMEAEDAATYYCQQRSSYPFTFGSGTKLEIK
In assay [2], B1 came in with a fluorescence intensity relative to the control polyclonal antibody of 2 fold.

For the origin of these results see patent EP4796561A1, “ANTI-SYNAPTOTAGMIN 2 ANTIBODY” (Jiksak Bioengineering, Inc., priority 2023, dated 2025).
